Patent US20100273831A1, “FLUORO ALKYL SUBSTITUTED BENZIMIDAZOLE CANNABINOID AGONISTS” (priority 2007, published 2010)

How the values were obtained:
[1] = biological target: T1, human CB1 (hCB1) receptor (Homo sapiens, UniProt P21554); assay: Inhibition of forskolin-activated cAMP production upon activation of human CB1 receptor (HTRF assay, CHO-K1 cells); type: cell-based; details: agonism; CHO-K1 cells stably transfected with hCB1; pEC50=-log(EC50); relative to CP55490; read-out: CB-1 pEC50 (converted)
T1 construct: expressed in transfected cells; host or cells: CHO-K1
Experimental: (§1) Functional activity of the test compounds was assessed by measuring their potency to inhibit forskolin-activated cAMP production upon activation of the human CB1 (hCB1) or human CB2 (hCB2) receptor through homogenous time resolved fluorescence (HTRF) assays.
(§2) CHO-K1 cells stably transfected with either hCB1 or hCB2 were grown up to 80-90% confluence in T175 Falcon flasks in DMEM/NUT MIX F-12 culture medium complemented with 2% Solution A (5.10^6 IU/1 penicillin G, 5 g/l streptomycin sulphate, 5.5 g/l pyruvate, 14.6 g/l L-glutamine, 1M NaOH) and 10% foetal calf serum. Before the experiments, medium was removed, cells were washed with PBS/EDTA (140 mM NaCl, 1 mM Na2-EDTA, 8 mM Na2HPO4.2H2O, 8.5 mM KH2PO4, 2.7 mM KCl, 21 mM glucose), resuspended in stimulation buffer (HBSS 1×, IBMX 1 mM, Hepes 5 mM, MgCl2 10 mM, BSA 0.1%, pH 7.4). Cells were diluted to a concentration of 8.10^5 cell/ml for hCB1 experiments and 10^6 cells/ml for hCB2 experiments. Assays were performed using the cAMP Dynamic HTRF kit (CIS bio international, France) according to the recommendations of the manufacturer.
For CB1, each well of a 96 flat bottom black polystyrene assay plate (Costar) was filled with 25 μl stimulation buffer containing 6 μM forskolin and either test compound (in 2% DMSO), 2% DMSO or 2 μM CP55490 (in 2% DMSO). Then, 25 μl of the diluted cells was added (20,000 cells/well). After 30 minutes incubation in dark at room temperature, 25 μl cAMP-XL665 and 25 μl anti-cAMP cryptate (both at a final dilution of 1/80) was added to the cells.
(§3) After equilibration of the reaction mixtures for 1 to 24 hours in dark at room temperature, fluorescence was measured at 665 nm and 620 nm using a Discovery microplate fluorescence counter (Perkin Elmer), and the signal ratio of 665 nm/620 nm was calculated. The signal ratios of the test compounds were expressed relative to the signal ratios of the DMSO control (maximal signal ratio, no inhibition of cAMP) and CP55490 or WIN55212-2 for hCB1 and hCB2, respectively (minimal signal ratio, maximal inhibition of cAMP). From the dose response curves generated for each test compound, the dose at which 50% of the maximal inhibition of cAMP level is observed (EC50, expressed in the Tables as pEC50=−log(EC50) values) and the level of inhibition reached with 10 μM of the test compound compared to CP55490 (for hCB1) or WIN55212-2 (for hCB2) was calculated.

[2] = biological target: T2, human CB2 (hCB2) receptor (Homo sapiens, UniProt P34972); assay: Inhibition of forskolin-activated cAMP production upon activation of human CB2 receptor (HTRF assay, CHO-K1 cells); type: cell-based; details: agonism; CHO-K1 cells stably transfected with hCB2; pEC50=-log(EC50); relative to WIN55212-2; read-out: CB-2 pEC50 (converted)
T2 construct: expressed in transfected cells; host or cells: CHO-K1
Experimental: as §1, §2
For CB2, each well of a 384 flat bottom black polystyrene assay plate (Costar) was filled with 10 μl stimulation buffer containing 15 μM forskolin and either test compound (in 3% DMSO), 3% DMSO or 10 μM Win55212-2 (in 3% DMSO). Then, 20 μl of the diluted hCB2-CHO-K1 cells was added (20,000 cells/well). After 30 minutes incubation in dark at room temperature, 10 μl cAMP-XL665 and 10 μl anti-cAMP cryptate (both at a final dilution of 1/100) was added to the cells.
as §3

T1 sequence (P21554 whole entry): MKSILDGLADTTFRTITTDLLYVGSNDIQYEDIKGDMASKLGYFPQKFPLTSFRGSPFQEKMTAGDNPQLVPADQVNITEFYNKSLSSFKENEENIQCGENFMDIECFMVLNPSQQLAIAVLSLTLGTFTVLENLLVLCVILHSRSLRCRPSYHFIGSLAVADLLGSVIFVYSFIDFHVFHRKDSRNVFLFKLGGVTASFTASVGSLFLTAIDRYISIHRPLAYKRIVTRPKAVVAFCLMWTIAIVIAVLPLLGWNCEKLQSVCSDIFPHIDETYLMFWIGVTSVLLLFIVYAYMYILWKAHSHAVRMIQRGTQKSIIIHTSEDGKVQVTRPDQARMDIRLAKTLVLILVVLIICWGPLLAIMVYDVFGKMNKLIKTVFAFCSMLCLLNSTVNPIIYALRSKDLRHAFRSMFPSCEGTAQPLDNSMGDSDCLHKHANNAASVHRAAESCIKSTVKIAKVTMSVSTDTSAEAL
T2 sequence (P34972 whole entry): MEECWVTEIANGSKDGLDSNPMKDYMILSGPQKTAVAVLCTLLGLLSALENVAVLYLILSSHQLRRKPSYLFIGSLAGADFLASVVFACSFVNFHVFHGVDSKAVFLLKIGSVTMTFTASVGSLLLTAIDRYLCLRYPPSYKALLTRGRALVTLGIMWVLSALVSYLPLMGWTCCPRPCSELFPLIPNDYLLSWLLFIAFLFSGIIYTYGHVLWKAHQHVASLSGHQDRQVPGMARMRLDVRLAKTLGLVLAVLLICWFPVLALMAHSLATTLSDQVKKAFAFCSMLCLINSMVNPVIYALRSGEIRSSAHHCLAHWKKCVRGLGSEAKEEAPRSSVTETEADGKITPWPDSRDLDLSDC

COc1ccc(CSc2ccc3c(c2)nc(C(C)(C)C)n3CCCC(F)(F)F)cc1
melting point: 143.2 °C

CC(C)(C)c1nc2cc(S(=O)(=O)C3CCNC3=O)ccc2n1CCCC(F)(F)F (stereo not drawn)
melting point: 208.7 °C

CC(C)(C)c1nc2cc(S(=O)(=O)c3ccc(C(N)=O)cc3)ccc2n1CCCC(F)(F)F
melting point: 207.8 °C

CC(C)(C)c1nc2cc(S(=O)(=O)Cc3ccc(C#N)cc3)ccc2n1CCCCC(F)(F)F
melting point: 177.4 °C

CC(C)(C)c1nc2cc(S(=O)(=O)C(C)(C)c3ccc(C#N)cc3)ccc2n1CCCCC(F)(F)F
melting point: 187.6 °C

CC(C)(C)c1nc2cc(S(=O)(=O)c3ccncc3)ccc2n1CCCC(F)(F)F
melting point: 155.4 °C

CC(C)(C)c1nc2cc(S(=O)(=O)c3ccc(C#N)cc3)ccc2n1CCCC(F)(F)F
melting point: 165.1 °C

COc1ccc(CSc2ccc3c(c2)nc(C(C)(C)C)n3CCCC(F)(F)F)cc1 [compound 1]
EC50 [1]: > 10000 nM | EC50 [2]: 5.01 nM

CC(C)(C)c1nc2cc(S(=O)(=O)CC3CC3)ccc2n1CCCC(F)(F)F [compound 3]
EC50 [1]: 316 nM | EC50 [2]: 1.26 nM

CC(C)(C)c1nc2cc(S(=O)(=O)c3ccncc3)ccc2n1CCCC(F)(F)F [compound 4]
EC50 [1]: 2510 nM | EC50 [2]: 0.398 nM

CC(C)(C)c1nc2cc(S(=O)(=O)c3cn[nH]c3)ccc2n1CCCC(F)(F)F [compound 5]
melting point: 220.8 °C | EC50 [1]: 1260 nM | EC50 [2]: 0.794 nM

CC(C)(C)c1nc2cc(S(=O)(=O)c3ccc(C#N)cc3)ccc2n1CCCC(F)(F)F [compound 6]
EC50 [1]: 79.4 nM | EC50 [2]: 0.398 nM

CC(C)(C)c1nc2cc([S+]([O-])c3ccc(C#N)cc3)ccc2n1CCCC(F)(F)F (stereo not drawn) [compound 7]
EC50 [1]: > 10000 nM | EC50 [2]: 2.51 nM

CC(C)(C)c1nc2cc(Sc3cn[nH]c3)ccc2n1CCCC(F)(F)F [compound 8]
EC50 [1]: > 10000 nM | EC50 [2]: 0.631 nM

CC(C)(C)c1nc2cc(Sc3ccc(C#N)cc3)ccc2n1CCCC(F)(F)F [compound 9]
EC50 [1]: 25.1 nM | EC50 [2]: 1 nM

COc1ccc(CSc2ccc3c(c2)nc(C(C)(C)C)n3CCCCC(F)(F)F)cc1 [compound 10]
EC50 [1]: > 10000 nM | EC50 [2]: 6.31 nM

CC(C)(C)c1nc2cc(S(=O)(=O)CC3CC3)ccc2n1CCCCC(F)(F)F [compound 11]
EC50 [1]: 31.6 nM | EC50 [2]: 1.58 nM

CC(C)(C)c1nc2cc(S(=O)(=O)c3ccc(C#N)cc3)ccc2n1CCCCC(F)(F)F [compound 12]
melting point: 180.1 °C | EC50 [1]: 25.1 nM | EC50 [2]: 1 nM

CC(C)(C)c1nc2cc(S(=O)(=O)c3ccncc3)ccc2n1CCCCC(F)(F)F [compound 13]
melting point: 147.6 °C | EC50 [1]: 200 nM | EC50 [2]: 1.58 nM

CC(C)(C)c1nc2cc(SCC3CC3)ccc2n1CCCCC(F)(F)F [compound 14]
EC50 [1]: 10 nM | EC50 [2]: 2 nM

CC(C)(C)c1nc2cc(S(=O)(=O)C3CCNC3=O)ccc2n1CCCC(F)(F)F (stereo not drawn) [compound 16]
EC50 [1]: 3980 nM | EC50 [2]: 2.51 nM

CC(C)(C)c1nc2cc(S(=O)(=O)c3ccc(C(N)=O)cc3)ccc2n1CCCC(F)(F)F [compound 18]
EC50 [1]: 2000 nM | EC50 [2]: 3.16 nM

CC(C)(C)c1nc2cc(S(=O)(=O)Cc3ccc(C#N)cc3)ccc2n1CCCCC(F)(F)F [compound 19]
EC50 [1]: > 10000 nM | EC50 [2]: 2 nM

CC(C)(C)c1nc2cc(S(=O)(=O)C(C)(C)c3ccc(C#N)cc3)ccc2n1CCCCC(F)(F)F [compound 20]
EC50 [1]: 2000 nM | EC50 [2]: 1.58 nM

CC(C)(C)c1nc2cc(S(=O)(=O)C(F)(F)c3ccc(C#N)cc3)ccc2n1CCCCC(F)(F)F [compound 21]
EC50 [1]: 79.4 nM | EC50 [2]: 3.16 nM

CC(C)(C)c1nc2cc(S(=O)(=O)Cc3ccc(C(N)=O)cc3)ccc2n1CCCCC(F)(F)F [compound 22]
melting point: 222.8 °C | EC50 [1]: 79.4 nM | EC50 [2]: 2 nM

CC(C)(C)c1nc2cc(S(=O)(=O)C3CCNC3=O)ccc2n1CCCCC(F)(F)F (stereo not drawn) [compound 23]
EC50 [1]: 1580 nM | EC50 [2]: 5.01 nM
